Assay results published in patent US7160685B2, “Diagnostic reagents for human cytomegalovirus and methods of use” (priority 1996, dated 2007).
Where no end group is shown, it is not given here. [ ]: non-standard residue; d: D form. The star is where a group is joined. Palmitoyl = CCCCCCCCCCCCCCCC(=O)*; Cha = N[C@@H](CC1CCCCC1)C(=O)O

Legend:
HLA A or B Allele = assay type: cell-based, human; conditions: for HLA A or B Allele Specificity: and subtypes where given
[1] = tested on: peptide-loaded T2 cells, EBVLCL targets infected with pp65Vac, and HCMV-infected fibroblasts; assay: lipidated peptides with and without IFA in transgenic HLA A2.1 mouse, CRA; assay type: in vivo; conditions: peptide together with PADRE, with versus without emulsification in IFA
Protocol: Either one or two palmitic acid moieties were attached to the amino terminus of the 495 peptide, and a series of immunization studies were conducted in the transgenic HLA A2.1 mouse.
Separate mice were immunized with unmodified pp65495-503, and either the monolipidated or dilipidated forms of the peptide together with the PADRE epitope. Because it has been previously shown that lipidated peptides will stimulate immunity without co-administration of Freund's adjuvant (H. Schild et al., Eur. J. Immunol. 21:2649–2654 (1991)), immunization of mice with and without emulsifying the peptides in IFA was compared. In a procedure similar to the procedure described in Example 9 above, twelve days post inoculation the mice were splenectomized and the spleen cell population was restimulated twice in vitro. The splenic effectors were then tested in a chromium release assay with peptide-loaded T2 cells, EBVLCL targets infected with pp65Vac, and HCMV-infected fibroblasts (D. J. Diamond et al., Blood 90 (5):1751–1767 (1997)). […] (See FIGS. 1–3)

[2] = tested on: peptide-sensitized targets; assay: single component lipid-HTL-CTL vaccine in transgenic HLA A2.1 mice, peptide-sensitized targets; assay type: in vivo, mouse; conditions: for lysis of p53149-157 sensitized targets by spleen cells of immunized mice / lysis of pp65495-503 peptide sensitized targets by spleen cells of immunized mice: 100 nmoles s.c. in 25% DMSO/PBS with 2.5% hexafluoroisopropanol
Protocol: (§1) Molecule A (SEQ ID NO:37) is a vaccine that has the capability of working in mice and humans, whereas molecule B (SEQ ID NO:38) should only be functional in mice. One hundred nanomoles of each of these vaccine peptides in 25% dimethysulfoxide in phosphate buffered saline with 2.5% hexafluoroisopropanol were injected s.c. into separate transgenic HLA A2.1 mice.
(§2) The methods referred to in Examples 9 and 10 were used to derive spleen cell populations containing cells which were specific against pp65 and HCMV. The spleen cells from immunized mice were tested for recognition and cytolysis against specific and non-specific peptide-sensitized targets, HCMV infected and non-infected HLA A*0201 and HLA-mismatched fibroblast targets. […] This stimulative effect of the booster is in agreement with B. Livingston et al., J. Immunol. 159:1383–1392 (1997)).

[3] = tested on: HCMV infected and non-infected HLA A*0201 and HLA-mismatched fibroblast targets; assay: single component lipid-HTL-CTL vaccine in transgenic HLA A2.1 mice, fibroblast targets; assay type: in vivo, mouse; conditions: 100 nmoles s.c., no adjuvant
Protocol: as §1, §2

peptide loaded T2 cells = assay: immunization of HLA A2.1 transgenic mice, splenic effectors tested on peptide loaded T2 cells; assay type: in vivo, mouse; conditions: 50 μg peptide with 20 μg PADRE in IFA s.c., two in vitro restimulation cycles
Description: A transgenic mouse model lacking prior HCMV exposure, the HLA A2.1 mouse (E. J. Bernhard et al., J. Exp. Med. 168:1157–1162 (1988)), was employed to test whether the 495 peptide could stimulate CTLs lacking prior virus exposure and function as a vaccine. These experiments involved in vitro analysis using mouse and human cell targets, either infected with viruses or primed with the peptide of SEQ ID NO:1 or a non-specific control peptide.
Three mice were immunized subcutaneously at the base of the tail with 50 μg of the 495 peptide (pp65495-503) or peptide p53149-157 from p53 (M. Theobald et al., Proc. Natl. Acad. Sci. U.S.A. 92:11993–11997 (1995)) together with 20 μg of the polyclonal helper T lymphocyte (HTL) peptide (PADRE; SEQ ID NO:29) (J. Alexander et al., Immunity. 1:751–761 (1994)) emulsified in IFA (Incomplete Freund's Adjuvant). After twelve days, spleens were removed from immunized mice, a splenic suspension was made, and the effector cells were restimulated for one week using p53149-157 or pp65495-503 peptide sensitized syngeneic lipopolysaccharide-treated splenic blast cells (P. A. Wentworth et al., Eur. J. Immunol. 26:97–101 (1996)). Thereafter, for subsequent in vitro stimulations, the stimulator cells were Jurkat A2.1 cells, prepared by mild acid treatment and subsequent loading of peptides (Z. Yu et al., Journal of Surgical Research 69:337–343 (1997)). […]

Question: Which “Number of Test Cell Lines (independent cell lines of the same restriction which were sensitized)” value (“Number of Test Cell Lines” below) (HLA A or B Allele) does the source give for “EFFWDANDIY (listed as Human cytomegalovirus) [SEQ ID NO: 13]” here?
Answer: 2

Question: What about the “HLA A or B Allele Specificity” value (HLA A or B Allele) of the same substance?
Answer: HLA B*44XX

Question: “1 PALMITIC ACID-KSS-NLVPMVATV-OH (Palmitoyl-KSSNLVPMVATV-OH; SMILES CCCCCCCCCCCCCCCC(=O)N[C@@H](CCCCN)C(=O)N[C@@H](CO)C(=O)N[C@@H](CO)C(=O)N[C@@H](CC(N)=O)C(=O)N[C@@H](CC(C)C)C(=O)N[C@H](C(=O)N1CCC[C@H]1C(=O)N[C@@H](CCSC)C(=O)N[C@H](C(=O)N[C@@H](C)C(=O)N[C@H](C(=O)N[C@H](C(=O)O)C(C)C)[C@@H](C)O)C(C)C)C(C)C) [SEQ ID NO:31]” was tested. Which “immune response induced (CRA of splenic effectors)” value [1] did it give?
Answer: weaker immune response

Question: Which results are given for “PTFTSQYRIQGKL (listed as Human cytomegalovirus) [SEQ ID NO: 12]”?
Answer: Number of Test Cell Lines (independent cell lines of the same restriction which were sensitized) (HLA A or B Allele): 3; HLA A or B Allele Specificity (HLA A or B Allele): HLA B*3801/2

Question: How did the “Number of Test Cell Lines” value (HLA A or B Allele) turn out when FPTKDVAL [SEQ ID NO: 9] was run?
Answer: 3

Question: And the “HLA A or B Allele Specificity” value (HLA A or B Allele)?
Answer: HLA B*3502,

Question: With “RPHERNGFTVL (listed as Human cytomegalovirus) [SEQ ID NO: 10]” as the substance, how does the “Number of Test Cell Lines” value (HLA A or B Allele) read?
Answer: 5

Question: What about the “HLA A or B Allele Specificity” value (HLA A or B Allele) of the same substance?
Answer: HLA B7

Question: How did the “immune response induced (CRA of splenic effectors)” value [1] turn out when “KSS-NLVPMVATV-OH (KSSNLVPMVATV-OH) [SEQ ID NO:30]” was run?
Answer: no activity unless emulsified in IFA

Question: For “(Pam)2-KSSISQAVHAAHAEINEAAANLVPMVATV (also: two palmitoyl groups on the N-terminal lysine, exact amine positions not given here) [SEQ ID NO:38]”, which “lysis of p53149-157 sensitized targets by spleen cells of immunized mice” value ([2]; no adjuvant) is on record?
Answer: ineffective

Question: And the “lysis of pp65495-503 peptide sensitized targets by spleen cells of immunized mice” value ([2]; no adjuvant)?
Answer: effectively lysed

Question: What about the “lysis of HCMV-infected HLA A*0201 fibroblasts” value [3] of the same substance?
Answer: effectively lysed

Question: And the “lysis of uninfected or HLA-mismatched fibroblasts” value [3]?
Answer: not recognized or lysed

Question: “p53149-157: peptide p53149-157 from human p53 which binds to HLA A*0201, control peptide (STPPPGTRV; UniProt P04637 149-157, looked up, fragment)” was tested. Which “recognition of T2 cells loaded with the immunizing peptide by murine splenic effectors” value (peptide loaded T2 cells) did it give?
Answer: substantial recognition

Question: What about the “recognition of T2 cells loaded with the non-immunizing peptide” value (peptide loaded T2 cells) of the same substance?
Answer: without recognition of the non-immunizing peptide

Question: Which results are given for SVLGPISGHVLK [SEQ ID NO: 11]?
Answer: Number of Test Cell Lines (independent cell lines of the same restriction which were sensitized) (HLA A or B Allele): 5; HLA A or B Allele Specificity (HLA A or B Allele): HLA A*1101

Question: “FTSQYRIQGKL (listed as Human cytomegalovirus) [SEQ ID NO: 14]” was tested. Which “Number of Test Cell Lines” value (HLA A or B Allele) did it give?
Answer: 4

Question: And the “HLA A or B Allele Specificity” value (HLA A or B Allele)?
Answer: HLA A*2402

Question: What does the source list for “(Pam)2-KSSAKXVAAWTLKAAANLVPMVATV (KSSAK[Cha]VAAWTLKAAANLVPMVATV; not fully specified (residue 1, N-terminus); printed as (Pam)2-KSSAKXVAAWTLKAAANLVPMVATV; also: (Pam)2- two palmitoyl groups at N-terminal end, attachment not given here) [SEQ ID NO:37]”?
Answer: immune response after single immunization ([2]; 50 nmole, single immunization): not effective; immune response after second immunization (booster) ([2]; 50 nmole, with booster): detectable immune response; lysis of p53149-157 sensitized targets by spleen cells of immunized mice ([2]; no adjuvant): ineffective; lysis of pp65495-503 peptide sensitized targets by spleen cells of immunized mice ([2]; no adjuvant): effectively lysed; relative potency of molecules A and B ([2]; 100 nmoles s.c., no adjuvant): more potent of the two; lysis of HCMV-infected HLA A*0201 fibroblasts [3]: effectively lysed; lysis of uninfected or HLA-mismatched fibroblasts [3]: not recognized or lysed

Question: Which “Number of Test Cell Lines” value (HLA A or B Allele) does the source give for “FVFPTKDVALR (listed as Human cytomegalovirus) [SEQ ID NO: 5]” here?
Answer: 3

Question: What about the “HLA A or B Allele Specificity” value (HLA A or B Allele) of the same substance?
Answer: HLA A*6801

Question: What does the source list for “TPRVTGGGAM (listed as Human cytomegalovirus) [SEQ ID NO: 7]”?
Answer: Number of Test Cell Lines (independent cell lines of the same restriction which were sensitized) (HLA A or B Allele): 5; HLA A or B Allele Specificity (HLA A or B Allele): HLA B7
